In paper PMC3933693, “Novel Inhibitors of Mitochondrial sn-Glycerol 3-phosphate Dehydrogenase” (PLoS ONE, 2014):

Assays:
[1] = test system: ubiquinone-binding site of complex I (site IQ); experiment: Site-specific H2O2 production from site IQ in skeletal muscle mitochondria; assay type: biochemical, rat; conditions: 5 mM succinate;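 also: H2O2 from superoxide detected by Amplex UltraRed fluorescence with added superoxide dismutase and horseradish peroxidase, endpoint read 30–40 min after substrate addition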
Procedure: Superoxide was measured as H2O2 after dismutation by endogenous or exogenous superoxide dismutase. Rates of total superoxide/H2O2 production were measured fluorimetrically using Amplex UltraRed in the presence of exogenous superoxide dismutase and horseradish peroxidase in a Varian Cary Eclipse fluorimeter as previously described [27]. Rates of production from specific sites were determined as previously described using the following eight conditions: flavin mononucleotide site of complex I (site IF) plus matrix NAD-linked dehydrogenases (collectively "site IF/DH") with 5 mM glutamate, 5 mM malate, and 4 µM rotenone [28]; ubiquinone-binding site of complex I (site IQ) with either 0.5 or 5 mM succinate [29]; flavin site of complex II (site IIF) with either 15 µM palmitoylcarnitine, 2.5 µM antimycin A, and 2 µM myxothiazol or 0.5 mM succinate, 4 µM rotenone, 2.5 µM antimycin A, and 2 µM myxothiazol [30], [31]; mGPDH with 1.7 mM glycerol phosphate, 4 µM rotenone, 2.5 µM antimycin A, 2 µM myxothiazol, 1 mM malonate, and 250 nM free calcium; outer ubiquinone-binding site of complex III (site IIIQo) with either 0.5 or 5 mM succinate, 4 µM rotenone and 2.5 µM antimycin A [32]. Candidate small-molecule inhibitors were added prior to the start of measurements and H2O2 calibration curves were performed in the presence of tested compounds.
3,200 compounds were tested initially at 2.5 µM (0.025% DMSO final) in duplicate on different plates against a panel of five distinct assays of site-specific superoxide/H2O2 production as described in the previous section with minor changes. […] Endpoint fluorescence was measured on a Perkin Elmer Victor V3 fluorescent plate reader. The fluorescence intensity of each well was normalized as % change from the average of eight DMSO controls on the same plate. Duplicate wells of each of four modulators of mitochondrial metabolism known to inhibit specific sites of superoxide/H2O2 production were included on each plate as positive controls and the resulting fluorescence levels set as −100% change from DMSO controls. Known inhibitors included 20 mM aspartate (for site IF/DH), 1 µM FCCP (for site IQ), 10 mM malonate (for site IIF), and 2 µM myxothiazol (for site IIIQo). The background fluorescence of the FCCP wells in the site IQ assay was used to normalize mGPDH plates run in parallel. To minimize position-dependent effects across each assay plate, Tukey’s two-way median polish was applied to fluorescence values after initial normalization [35], [36]. Tukey’s polish is an iterative subtraction of the median row and column values from each well’s given row or column. The procedure is repeated until sequential medians for each row and column are zero and positional gradients in fluorescence are eliminated.
These 20 compounds were tested in duplicate at 0.08–80 µM (0.1% DMSO final) in microplate format for effects on site-specific H2O2 production as described above. […] Plates were incubated in the dark at room temperature for 30–40 min (H2O2) or 10–15 min (ΔΨm) after the addition of substrate, and endpoint fluorescence was measured on the Victor plate reader. Endpoints were chosen for the H2O2 assays to provide good signal-to-noise ratios and linear rates of change without the indicator dye limiting the reaction.

mGPDH = target: T1, mGPDH (Rattus norvegicus, UniProt P35571); experiment: Superoxide/H2O2 production by mGPDH in isolated skeletal muscle mitochondria (Amplex UltraRed); assay type: biochemical; conditions: for inhibition at 80 µM: read-out: mGPDH H2O2 production (% change at 80 μM); for IC50: Fig. 4 structure/activity microplate assay, 0.08–80 µM, estimated, means of two replicates, read-out: mGPDH H2O2 production IC50
T1 construct: Activity of mGPDH in frozen-thawed skeletal muscle mitochondria was measured; from tissue; host or cells: skeletal muscle mitochondria
T1 sequence (P35571 43-727): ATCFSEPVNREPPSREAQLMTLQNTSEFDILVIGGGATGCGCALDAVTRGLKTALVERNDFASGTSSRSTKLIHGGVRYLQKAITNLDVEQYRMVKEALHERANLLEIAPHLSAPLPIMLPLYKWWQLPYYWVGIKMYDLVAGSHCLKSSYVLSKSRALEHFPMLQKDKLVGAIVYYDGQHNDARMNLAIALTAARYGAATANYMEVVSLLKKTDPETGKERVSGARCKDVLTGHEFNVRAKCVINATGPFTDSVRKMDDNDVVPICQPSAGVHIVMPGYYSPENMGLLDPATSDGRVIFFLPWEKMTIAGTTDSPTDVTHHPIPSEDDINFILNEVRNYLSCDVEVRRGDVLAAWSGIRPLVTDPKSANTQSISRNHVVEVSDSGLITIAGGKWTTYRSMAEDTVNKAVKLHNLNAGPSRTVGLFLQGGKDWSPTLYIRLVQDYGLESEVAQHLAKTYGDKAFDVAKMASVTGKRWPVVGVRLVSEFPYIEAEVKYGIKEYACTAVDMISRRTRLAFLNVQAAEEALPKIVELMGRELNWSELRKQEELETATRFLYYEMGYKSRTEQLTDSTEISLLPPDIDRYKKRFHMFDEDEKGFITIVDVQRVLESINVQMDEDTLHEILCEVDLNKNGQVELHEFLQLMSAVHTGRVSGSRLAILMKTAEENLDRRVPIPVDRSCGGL

[2] = test system: skeletal muscle mitochondria; experiment: Mitochondrial membrane potential (ΔΨm, TMRM) powered by glutamate plus malate; assay type: biochemical, rat; conditions: for ΔΨm with Glu + Mal + Nig (% change at 80 μM) / ΔΨm with Glu + Mal (% change at 80 μM): 5 mM glutamate, 5 mM malate; for ΔΨm with Glu + Mal + Nig (% change at 80 μM): with nigericin; for ΔΨm with Glu + Mal (% change at 80 μM): without nigericin
Procedure: (§3) Mitochondrial membrane potential (ΔΨm) was estimated fluorimetrically as described previously [33] on the Varian fluorimeter, except the potentiometric dye TMRM was used in quench-mode in place of safranine O [34]. […] The effect of putative small-molecule inhibitors was normalized as the % change in fluorescence between vehicle treatment and complete depolarization by the uncoupler carbonyl cyanide-4-(trifluoromethoxy)phenylhydrazone (FCCP, 2 µM) added at the end of each run. When indicated, the K^+/H^+ exchanger nigericin (80 ng ⋅ ml^−1) was added to collapse the pH gradient across the mitochondrial inner membrane (ΔpH) and maximize ΔΨm.
(§4) All assays were performed with stirring at 37°C.
(§5) Additionally, four microplate assays for ΔΨm were run in parallel to the H2O2 assays. These assays were as described under “Measurement of mitochondrial H2O2 production and membrane potential” except that each substrate condition was assayed in a separate microplate. […] Plates were incubated in the dark at room temperature for 30–40 min (H2O2) or 10–15 min (ΔΨm) after the addition of substrate, and endpoint fluorescence was measured on the Victor plate reader. […] Endpoints for the ΔΨm assays were determined in pilot experiments as the times for TMRM accumulation to reach a steady state. At room temperature, this was typically ∼ 5 min and remained stable for at least 30 min. Endpoint fluorescence values were normalized as described in the previous section with wells containing FCCP serving as positive controls for the ΔΨm assays.

[3] = test system: skeletal muscle mitochondria; experiment: Mitochondrial membrane potential (ΔΨm, TMRM) powered by glycerol phosphate; assay type: biochemical, rat; conditions: 80 μM; 16.7 mM glycerol phosphate, 4 µM rotenone, nigericin
Procedure: as §3, §4, §5

[4] = test system: flavin mononucleotide site of complex I (site IF) plus matrix NAD-linked dehydrogenases (site IF/DH); experiment: Site-specific H2O2 production from site IF/DH in skeletal muscle mitochondria; assay type: biochemical, rat; conditions: primary screen, ∼2.5 µM, average of duplicates
Procedure: (§1) Superoxide was measured as H2O2 after dismutation by endogenous or exogenous superoxide dismutase. Rates of total superoxide/H2O2 production were measured fluorimetrically using Amplex UltraRed in the presence of exogenous superoxide dismutase and horseradish peroxidase in a Varian Cary Eclipse fluorimeter as previously described. Rates of production from specific sites were determined as previously described using the following eight conditions: flavin mononucleotide site of complex I (site IF) plus matrix NAD-linked dehydrogenases (collectively "site IF/DH") with 5 mM glutamate, 5 mM malate, and 4 µM rotenone; ubiquinone-binding site of complex I (site IQ) with either 0.5 or 5 mM succinate; flavin site of complex II (site IIF) with either 15 µM palmitoylcarnitine, 2.5 µM antimycin A, and 2 µM myxothiazol or 0.5 mM succinate, 4 µM rotenone, 2.5 µM antimycin A, and 2 µM myxothiazol, [31]; mGPDH with 1.7 mM glycerol phosphate, 4 µM rotenone, 2.5 µM antimycin A, 2 µM myxothiazol, 1 mM malonate, and 250 nM free calcium; outer ubiquinone-binding site of complex III (site IIIQo) with either 0.5 or 5 mM succinate, 4 µM rotenone and 2.5 µM antimycin A [32]. Candidate small-molecule inhibitors were added prior to the start of measurements and H2O2 calibration curves were performed in the presence of tested compounds.
(§2) 3,200 compounds were tested initially at 2.5 µM (0.025% DMSO final) in duplicate on different plates against a panel of five distinct assays of site-specific superoxide/H2O2 production as described in the previous section with minor changes. […] Endpoint fluorescence was measured on a Perkin Elmer Victor V3 fluorescent plate reader. The fluorescence intensity of each well was normalized as % change from the average of eight DMSO controls on the same plate. Duplicate wells of each of four modulators of mitochondrial metabolism known to inhibit specific sites of superoxide/H2O2 production were included on each plate as positive controls and the resulting fluorescence levels set as −100% change from DMSO controls. Known inhibitors included 20 mM aspartate (for site IF/DH), 1 µM FCCP (for site IQ), 10 mM malonate (for site IIF), and 2 µM myxothiazol (for site IIIQo). The background fluorescence of the FCCP wells in the site IQ assay was used to normalize mGPDH plates run in parallel. To minimize position-dependent effects across each assay plate, Tukey’s two-way median polish was applied to fluorescence values after initial normalization, [36]. Tukey’s polish is an iterative subtraction of the median row and column values from each well’s given row or column. The procedure is repeated until sequential medians for each row and column are zero and positional gradients in fluorescence are eliminated.

[5] = target: T2, outer ubiquinone-binding site of complex III (site IIIQo) (Rattus norvegicus, UniProt P00159+P20788); experiment: Site-specific H2O2 production from site IIIQo in skeletal muscle mitochondria; assay type: biochemical; conditions: primary screen, ∼2.5 µM, average of duplicates; 5 mM succinate
T2 construct: from tissue; host or cells: skeletal muscle mitochondria
Procedure: as §1, §2

[6] = target: T3, flavin site of complex II (site IIF) (Rattus norvegicus, UniProt Q920L2); experiment: Site-specific H2O2 production from site IIF in skeletal muscle mitochondria; assay type: biochemical; conditions: primary screen, ∼2.5 µM, average of duplicates; palmitoylcarnitine
T3 construct: from tissue; host or cells: skeletal muscle mitochondria
Procedure: as §1, §2

T3 sequence (Q920L2 35-656): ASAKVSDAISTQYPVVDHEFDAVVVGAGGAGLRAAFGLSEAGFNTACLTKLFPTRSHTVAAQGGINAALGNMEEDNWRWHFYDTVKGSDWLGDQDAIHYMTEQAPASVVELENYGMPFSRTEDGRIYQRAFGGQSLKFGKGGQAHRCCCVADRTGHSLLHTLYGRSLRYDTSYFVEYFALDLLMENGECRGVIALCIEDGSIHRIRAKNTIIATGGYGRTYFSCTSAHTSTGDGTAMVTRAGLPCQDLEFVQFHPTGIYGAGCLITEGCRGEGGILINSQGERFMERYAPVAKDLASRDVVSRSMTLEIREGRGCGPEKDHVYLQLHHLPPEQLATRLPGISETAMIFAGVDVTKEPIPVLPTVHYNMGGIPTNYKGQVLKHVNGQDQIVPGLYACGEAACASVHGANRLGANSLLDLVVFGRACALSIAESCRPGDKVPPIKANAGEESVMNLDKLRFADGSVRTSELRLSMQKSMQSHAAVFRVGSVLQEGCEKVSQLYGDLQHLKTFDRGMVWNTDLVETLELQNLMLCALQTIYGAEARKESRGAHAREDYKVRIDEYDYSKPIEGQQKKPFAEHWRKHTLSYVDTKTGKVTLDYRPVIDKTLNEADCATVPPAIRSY
T3 sequence (P21913 31-282 partner): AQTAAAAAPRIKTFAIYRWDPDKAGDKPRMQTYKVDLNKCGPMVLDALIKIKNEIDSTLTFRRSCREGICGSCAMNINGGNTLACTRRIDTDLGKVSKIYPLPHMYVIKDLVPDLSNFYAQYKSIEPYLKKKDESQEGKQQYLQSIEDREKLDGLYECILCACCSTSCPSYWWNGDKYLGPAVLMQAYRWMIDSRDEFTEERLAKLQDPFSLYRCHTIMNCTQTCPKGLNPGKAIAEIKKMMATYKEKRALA
T3 sequence (Q641Z9 30-169 partner limits assumed): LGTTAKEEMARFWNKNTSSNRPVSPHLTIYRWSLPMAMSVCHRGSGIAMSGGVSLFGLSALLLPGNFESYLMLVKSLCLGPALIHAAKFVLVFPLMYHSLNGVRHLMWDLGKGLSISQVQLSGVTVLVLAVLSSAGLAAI
T3 sequence (Q6PCT8 57-159 partner): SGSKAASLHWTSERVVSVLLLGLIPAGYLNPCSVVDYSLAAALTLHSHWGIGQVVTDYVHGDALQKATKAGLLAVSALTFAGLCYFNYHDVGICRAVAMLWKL

In the case of `Cc1ccc(NC(=O)CCC(=O)O)cc1` [iGP-19], the “IQ H2O2 production with 5 mM Suc (% change at 80 μM)” value [1] is reported as 7%, the inhibition at 80 µM (mGPDH) is reported as 1% and the “ΔΨm with Glu + Mal + Nig (% change at 80 μM)” value [2] is reported as -2%. The “ΔΨm with Glu + Mal (% change at 80 μM)” value [2] was -8% and the “ΔΨm with GP + Nig (% change at 80 μM)” value [3] was -2%.
With `O=C(O)CCC(=O)Nc1ccc(Cl)cc1` [iGP-18] the “IQ H2O2 production with 5 mM Suc (% change at 80 μM)” value [1] was 6%, the inhibition at 80 µM (mGPDH) was -2% and the “ΔΨm with Glu + Mal + Nig (% change at 80 μM)” value [2] was -3%. The “ΔΨm with Glu + Mal (% change at 80 μM)” value [2] was -9% and the “ΔΨm with GP + Nig (% change at 80 μM)” value [3] was -1%.
In the case of `O=C(Nc1ccc(-c2nc3ccccc3[nH]2)cc1)C1CC1` [iGP-16], the “IQ H2O2 production with 5 mM Suc (% change at 80 μM)” value [1] is reported as -24%, the inhibition at 80 µM (mGPDH) is reported as 7% and the “ΔΨm with Glu + Mal + Nig (% change at 80 μM)” value [2] is reported as 1%. The “ΔΨm with Glu + Mal (% change at 80 μM)” value [2] was 4% and the “ΔΨm with GP + Nig (% change at 80 μM)” value [3] was 2%.
With `O=C(O)CCC(=O)Nc1ccc(-c2nc3ccccc3s2)cc1` [iGP-3] the “IQ H2O2 production with 5 mM Suc (% change at 80 μM)” value [1] was -69%, the IC50 (mGPDH) was 15 µM and the inhibition at 80 µM (mGPDH) was 50%. For the same compound, the “ΔΨm with Glu + Mal + Nig (% change at 80 μM)” value [2] was 20%, the “ΔΨm with Glu + Mal (% change at 80 μM)” value [2] was 148% and the “ΔΨm with GP + Nig (% change at 80 μM)” value [3] was -26%.
`O=C(O)CCC(=O)Nc1ccc(-c2nc3ccccc3o2)cc1` [iGP-2] was tested, and the “IQ H2O2 production with 5 mM Suc (% change at 80 μM)” value [1] was -57%, the “IQ (% change from DMSO)” value ([1]; primary screen, ∼2.5 µM, average of duplicates) was 0.759% and the “IF/DH (% change from DMSO)” value [4] was -2.6%. The “IIIQo (% change from DMSO)” value [5] was 2.5%, the “IIF (% change from DMSO)” value [6] was 2.1% and the IC50 (mGPDH) was 20 µM. For the same compound, the “mGPDH (% change from DMSO)” value (mGPDH; primary screen, ∼2.5 µM, average of duplicates, 16.7 mM glycerol phosphate, no added calcium) was -12.2%, the inhibition at 80 µM (mGPDH) was 50% and the “ΔΨm with Glu + Mal + Nig (% change at 80 μM)” value [2] was 18%. The “ΔΨm with Glu + Mal (% change at 80 μM)” value [2] was 107%, the “ΔΨm (% change from DMSO)” value ([2]; primary screen, ∼2.5 µM, average of duplicates, glutamate and malate) was 0.8% and the “ΔΨm with GP + Nig (% change at 80 μM)” value [3] was 1%.
For `CCCCCCNC(=O)CCC(=O)O` [iGP-17], the “IQ H2O2 production with 5 mM Suc (% change at 80 μM)” value [1] was -1%, the inhibition at 80 µM (mGPDH) was -6% and the “ΔΨm with Glu + Mal + Nig (% change at 80 μM)” value [2] was -1%. The “ΔΨm with Glu + Mal (% change at 80 μM)” value [2] was -1% and the “ΔΨm with GP + Nig (% change at 80 μM)” value [3] was 0%.
In the case of `CCOc1ccc(C(=O)Nc2ccc(-c3nc4ccccc4[nH]3)cc2)cc1` [iGP-15], the “IQ H2O2 production with 5 mM Suc (% change at 80 μM)” value [1] is reported as -15%, the inhibition at 80 µM (mGPDH) is reported as -11% and the “ΔΨm with Glu + Mal + Nig (% change at 80 μM)” value [2] is reported as -42%. The “ΔΨm with Glu + Mal (% change at 80 μM)” value [2] was 10% and the “ΔΨm with GP + Nig (% change at 80 μM)” value [3] was -25%.
With `CCCC(=O)Nc1ccc(-c2nc3cc4ccccc4cc3[nH]2)cc1` [iGP-9] the “IQ H2O2 production with 5 mM Suc (% change at 80 μM)” value [1] was -1%, the inhibition at 80 µM (mGPDH) was 2% and the “ΔΨm with Glu + Mal + Nig (% change at 80 μM)” value [2] was 5%. For the same compound, the “ΔΨm with Glu + Mal (% change at 80 μM)” value [2] was 26% and the “ΔΨm with GP + Nig (% change at 80 μM)” value [3] was 5%.
For `CC(=O)Nc1ccc(-c2nc3ccccc3[nH]2)cc1` [iGP-12], the “IQ H2O2 production with 5 mM Suc (% change at 80 μM)” value [1] was -21%, the inhibition at 80 µM (mGPDH) was 28% and the “ΔΨm with Glu + Mal + Nig (% change at 80 μM)” value [2] was 2%. For the same compound, the “ΔΨm with Glu + Mal (% change at 80 μM)” value [2] was 10% and the “ΔΨm with GP + Nig (% change at 80 μM)” value [3] was 2%.
For `Cc1ccc2[nH]c(-c3ccc(NC(=O)CCC(=O)O)cc3)nc2c1` [iGP-4], the “IQ H2O2 production with 5 mM Suc (% change at 80 μM)” value [1] was -20%, the IC50 (mGPDH) was 5 µM and the inhibition at 80 µM (mGPDH) was 69%. For the same compound, the “ΔΨm with Glu + Mal + Nig (% change at 80 μM)” value [2] was 11%, the “ΔΨm with Glu + Mal (% change at 80 μM)” value [2] was 49% and the “ΔΨm with GP + Nig (% change at 80 μM)” value [3] was -35%.
For `c1ccc2[nH]c(-c3ccc(-c4nc5ccccc5[nH]4)cc3)nc2c1` [iGP-10], the “IQ H2O2 production with 5 mM Suc (% change at 80 μM)” value [1] was -77%, the inhibition at 80 µM (mGPDH) was 0% and the “ΔΨm with Glu + Mal + Nig (% change at 80 μM)” value [2] was -78%. For the same compound, the “ΔΨm with Glu + Mal (% change at 80 μM)” value [2] was -58% and the “ΔΨm with GP + Nig (% change at 80 μM)” value [3] was -78%.
In the case of `O=C(Nc1ccc(-c2nc3ccccc3[nH]2)cc1)c1ccco1` [iGP-13], the “IQ H2O2 production with 5 mM Suc (% change at 80 μM)” value [1] is reported as -82%, the IC50 (mGPDH) is reported as 80 µM and the inhibition at 80 µM (mGPDH) is reported as 37%. The “ΔΨm with Glu + Mal + Nig (% change at 80 μM)” value [2] was 10%, the “ΔΨm with Glu + Mal (% change at 80 μM)” value [2] was 23% and the “ΔΨm with GP + Nig (% change at 80 μM)” value [3] was 13%.
`C=C(C)C(=O)Nc1ccc(-c2nc3ccccc3[nH]2)cc1` [iGP-11] was tested, and the “IQ H2O2 production with 5 mM Suc (% change at 80 μM)” value [1] was -54%, the inhibition at 80 µM (mGPDH) was 5% and the “ΔΨm with Glu + Mal + Nig (% change at 80 μM)” value [2] was -1%. The “ΔΨm with Glu + Mal (% change at 80 μM)” value [2] was 54% and the “ΔΨm with GP + Nig (% change at 80 μM)” value [3] was 1%.
